Measurements from patent publication US20230203023A1, “SALT AND CRYSTAL FORMS OF GLP-1R AGONISTS AND USES THEREOF” (QILU REGOR THERAPEUTICS INC., priority 2020, published 2023).
In brackets after ≈: the same amount, converted by molar mass. Where two headings read alike, the source gives them in different places.

Legend:
[1] = Kinetic solubility test in water and bio-relevant media (SGF, FaSSIF, FeSSIF); assay type: physicochemical; details: for solubility at 1 h: 37 °C, thermodynamic from solid, read-out: S: solubility; for solubility at 1 h / S: solubility: 37° C.; for Purity (%), area percentage of API: for reference only (suspensions); for FC: form change: residual solids by XRPD; for pH: supernatant
Protocol: (§1) Weigh 100 mg of sodium chloride and 50 mg of Triton X-100 into a 50-mL volumetric flask. Add appropriate volume of purified water and sonicate until all solids are completely dissolved. Add about 68 μL of 12 M HCl and sufficient purified water closely to the target volume and adjust to pH 1.8. Dilute to volume with purified water, mix well and check the pH with a pH meter.
as §1, with “170” for “100”, “phosphate monobasic, 21” for “chloride and 50”, “sodium hydroxide and 310 mg of sodium chloride, 110 mg of SIF powder” for “Triton X-100”, “Add” for “Add about 68 μL of 12 M HCl and”, “6.5.” for “1.8.”
Weigh 0.41 mL of glacial acetic acid, 202 mg of sodium hydroxide and 594 mg of sodium chloride, 560 mg of SIF powder into a 50-mL volumetric flask. Add appropriate volume of purified water to dissolve the solids. Then add sufficient purified water closely to the target volume and adjust to pH 5.0. Dilute to volume with purified water, mix well and check the pH with a pH meter.
Kinetic solubility was evaluated in water and three bio-relevant media (SGF, FaSSIF and FeSSIF) for 1/4/24 hours. 3-4 mg of solids were suspended in 3 mL each medium (solid loading: 1 mg/mL, calculated using freeform) to get a suspension, followed by rolling (25 rpm) at 37° C. for 1/4/24 hours. At each time point, ˜1.0 mL of suspension was sampled out for centrifugation (12000 rpm, 2 min) and filtration through 0.45 μm PTFE membrane to obtain supernatant for HPLC and pH tests, the residual solids were analyzed by XRPD.
Kinetic solubility was evaluated for 1:1 Compound II Citrate Salt (Form A), 1:1 Compound II Tris Salt (Form B), and freeform of Compound II in water and three bio-relevant media (SGF, FaSSIF and FeSSIF) for 1/4/24 hours. 3-4 mg of solids were suspended in 3 mL each medium (solid loading:
1 mg/mL, calculated using freeform) to get a suspension, followed by rolling (25 rpm) at 37° C. for 1/4/24 hours. At each time point, ˜1.0 mL of suspension was sampled out for centrifugation (12000 rpm, 2 min) and filtration through 0.45 μm PTFE membrane to obtain supernatant for HPLC and pH tests, the residual solids were analyzed by XRPD. […] The purity results were for reference only since the samples were all suspensions.

[2] = Solid stability evaluation (I/II), XRPD and HPLC; assay type: physicochemical; details: for Purity (area %): listed as Amorphous Free form
Protocol: To evaluate the physical and chemical stability of 1:1 Compound I Tris Salt (Form A) and amorphous free form, samples were stored under the conditions of 60° C. for 1 day and 25° C./60% RH or 40° C./75% RH for 1 week, respectively.
To evaluate the physical and chemical stability of 1:1 Compound II Citrate Salt (Form A), 1:1 Compound II Tris Salt (Form B) and freeform, samples were stored under the conditions of 60° C. for 1 day and 25° C./60% RH or 40° C./75% RH for 1 week, respectively.

[3] = FaSSIF, 4 hours, listed as Free form amorphous
[4] = FaSSIF, 24 hours, listed as Free form amorphous
[5] = FeSSIF, 1 hour, listed as Free form amorphous
[6] = FeSSIF, 4 hours, listed as Free form amorphous
[7] = FeSSIF, 24 hours, listed as Free form amorphous
[8] = H2O, 1 hour, listed as Free form amorphous
[9] = H2O, 4 hours, listed as Free form amorphous
[10] = H2O, 24 hours, listed as Free form amorphous
[11] = SGF, 1 hour, listed as Free form amorphous
[12] = SGF, 4 hours, listed as Free form amorphous
[13] = SGF, 24 hours, listed as Free form amorphous

solubility at 1 h ([1]; FaSSIF, pH 6.5, fassif, FaSSIF, 1 hour): 200 µg/mL (≈ 356 µM)
Purity (%), area percentage of API ([1]; FaSSIF, 1 hour, listed as Free form amorphous): 93.54%
S: solubility [1, 3]: 80 µg/mL
Purity (%), area percentage of API ([1]; FaSSIF, 4 hours): 49.59%
S: solubility [1, 4]: 40 µg/mL
Purity (%), area percentage of API [1, 4]: 63.24%
solubility at 1 h ([1]; FeSSIF, pH 5, fessif, FeSSIF, 1 hour): 400 µg/mL (≈ 712 µM)
Purity (%), area percentage of API [1, 5]: 94.78%
S: solubility [1, 6]: 500 µg/mL
Purity (%), area percentage of API [1, 6]: 91.80%
S: solubility [1, 7]: 400 µg/mL
Purity (%), area percentage of API [1, 7]: 77.57%
S: solubility [1, 8]: 30 µg/mL
Purity (%), area percentage of API [1, 8]: 100.00%
S: solubility [1, 9]: 20 µg/mL
Purity (%), area percentage of API [1, 9]: 87.13%
S: solubility [1, 10]: <LOQ
Purity (%), area percentage of API [1, 10]: 9.97%
S: solubility ([1]; SGF, 1 hour): 400 µg/mL
Purity (%), area percentage of API [1, 11]: 93.07%
S: solubility [1, 12]: 600 µg/mL
Purity (%), area percentage of API [1, 12]: 94.02%
S: solubility [1, 13]: 800 µg/mL
Purity (%), area percentage of API [1, 13]: 91.48%
FC: form change ([1]; FaSSIF, 1 hour): No
FC: form change ([1]; FaSSIF, 4 hours): No
FC: form change [1, 4]: Yes
FC: form change ([1]; FeSSIF, 1 hour): No
FC: form change ([1]; FeSSIF, 4 hours): No
FC: form change ([1]; FeSSIF, 24 hours): No
FC: form change ([1]; H2O, 1 hour): No
FC: form change ([1]; H2O, 4 hours): No
FC: form change ([1]; H2O, 24 hours): No
FC: form change [1, 11]: No
FC: form change [1, 12]: No
FC: form change [1, 13]: No
pH ([1]; FaSSIF, 1 hour): 6.5
pH [1, 3]: 6.5
pH [1, 4]: 6.4
pH [1, 5]: 5.0
pH ([1]; FeSSIF, 4 hours): 5.0
pH ([1]; FeSSIF, 24 hours): 5.0
pH [1, 8]: 8.4
pH [1, 9]: 7.3
pH [1, 10]: 6.8
pH [1, 12]: 1.9
Form change ([2]; 25° C./60% RH (open), 1 week): No
Observation ([2]; 25° C./60% RH (open), 1 week): Yellowish
Purity (area %) ([2]; 25° C./60% RH (open), 1 week): 93.06 area %
Purity (area %) ([2]; 40° C./75% RH (open), 1 week): 89.59 area %
Form change ([2]; 60° C. (capped), 1 day): No
Observation ([2]; 60° C. (capped), 1 day): Yellowish
Purity (area %) ([2]; 60° C. (capped), 1 day): 86.88 area %
Form change ([2]; Initial): No
Observation ([2]; Initial): White powder
Purity (area %) ([2]; Initial): 94.71 area %
SMILES: O=C(O)c1ccc2nc(CN3CC=C(c4cccc(OCc5ccc(Cl)cc5F)c4)CC3)n(C[C@@H]3CCO3)c2c1 [Compound I, (S)-2-((4-(3-((4-chloro-2-fluorobenzyl)-oxy)phenyl)-3,6-dihydropyridin-1(2H)-yl)methyl)-1-(oxetan-2-ylmethyl)-1H-benzo[d]-imidazole-6-carboxylic acid]
